Measured values as given in BindingDB's records for patent US20240025884 (Dong-A St Co., 2024).

Biological target: eIF-2-alpha kinase GCN2 (Homo sapiens, UniProt Q9P2K8)
Assay: Biochemical Assay
Procedure: 384-well (Greiner #784075) (or 1536-well [Greiner #782075]) plates containing 60 nl (or 20 nl for 1536-well) of compound in 100% DMSO (10 concentrations serially diluted 3.16-fold) were prepared. Two copies of plates were used one for the GCN2 assay and a second for an artifact plate. Working reagents were prepared as follows reaction buffer: Tris pH 7.5 20 mM, MgCl2 5 mM, DTT 1 mM, Brij-35 0.005%, EGTA 0.5 mM in water; 2 enzyme solution: GCN2 (produced in-house) 1.6 nM in reaction buffer; 2 substrate solution: GFP-eIFS1 (Thermo Fisher Scientific, PV4809) 50 nM, ATP 0.2 mM, tRNA 0.4 mg/ml in reaction buffer; p-GFP-eIF2S1 (artifact) solution: p-GFP-eIFS1 (produced by incubation of 100 nM GFP-eIF2S1 in reaction buffer with 100 uM ATP and 1 nM PERK KD enzyme for 3 hr at room temperature) 2 nM in reaction buffer; 3 stop/antibody solution: p-GFP-EIF2S1 Th-Ab (Thermo Fisher Scientific, PV4816) 6 nM, AZ13933939 3 uM, BSA 3% in reaction buffer. Reagents were loaded onto a liquid dispenser (Certus FLEX, Trajan Scientific and Medical), and 3 ul (1 ul for 1536-well) of 2 enzyme solution, followed by 3 ul (1 ul for 1536-well) of 2 substrate solution was added to the plates. When small numbers of plates were processed, the enzyme solution was added first to all plates, then the valve used for the substrate solution was primed immediately prior to use. […]

Chain of eIF-2-alpha kinase GCN2 (Q9P2K8 whole entry): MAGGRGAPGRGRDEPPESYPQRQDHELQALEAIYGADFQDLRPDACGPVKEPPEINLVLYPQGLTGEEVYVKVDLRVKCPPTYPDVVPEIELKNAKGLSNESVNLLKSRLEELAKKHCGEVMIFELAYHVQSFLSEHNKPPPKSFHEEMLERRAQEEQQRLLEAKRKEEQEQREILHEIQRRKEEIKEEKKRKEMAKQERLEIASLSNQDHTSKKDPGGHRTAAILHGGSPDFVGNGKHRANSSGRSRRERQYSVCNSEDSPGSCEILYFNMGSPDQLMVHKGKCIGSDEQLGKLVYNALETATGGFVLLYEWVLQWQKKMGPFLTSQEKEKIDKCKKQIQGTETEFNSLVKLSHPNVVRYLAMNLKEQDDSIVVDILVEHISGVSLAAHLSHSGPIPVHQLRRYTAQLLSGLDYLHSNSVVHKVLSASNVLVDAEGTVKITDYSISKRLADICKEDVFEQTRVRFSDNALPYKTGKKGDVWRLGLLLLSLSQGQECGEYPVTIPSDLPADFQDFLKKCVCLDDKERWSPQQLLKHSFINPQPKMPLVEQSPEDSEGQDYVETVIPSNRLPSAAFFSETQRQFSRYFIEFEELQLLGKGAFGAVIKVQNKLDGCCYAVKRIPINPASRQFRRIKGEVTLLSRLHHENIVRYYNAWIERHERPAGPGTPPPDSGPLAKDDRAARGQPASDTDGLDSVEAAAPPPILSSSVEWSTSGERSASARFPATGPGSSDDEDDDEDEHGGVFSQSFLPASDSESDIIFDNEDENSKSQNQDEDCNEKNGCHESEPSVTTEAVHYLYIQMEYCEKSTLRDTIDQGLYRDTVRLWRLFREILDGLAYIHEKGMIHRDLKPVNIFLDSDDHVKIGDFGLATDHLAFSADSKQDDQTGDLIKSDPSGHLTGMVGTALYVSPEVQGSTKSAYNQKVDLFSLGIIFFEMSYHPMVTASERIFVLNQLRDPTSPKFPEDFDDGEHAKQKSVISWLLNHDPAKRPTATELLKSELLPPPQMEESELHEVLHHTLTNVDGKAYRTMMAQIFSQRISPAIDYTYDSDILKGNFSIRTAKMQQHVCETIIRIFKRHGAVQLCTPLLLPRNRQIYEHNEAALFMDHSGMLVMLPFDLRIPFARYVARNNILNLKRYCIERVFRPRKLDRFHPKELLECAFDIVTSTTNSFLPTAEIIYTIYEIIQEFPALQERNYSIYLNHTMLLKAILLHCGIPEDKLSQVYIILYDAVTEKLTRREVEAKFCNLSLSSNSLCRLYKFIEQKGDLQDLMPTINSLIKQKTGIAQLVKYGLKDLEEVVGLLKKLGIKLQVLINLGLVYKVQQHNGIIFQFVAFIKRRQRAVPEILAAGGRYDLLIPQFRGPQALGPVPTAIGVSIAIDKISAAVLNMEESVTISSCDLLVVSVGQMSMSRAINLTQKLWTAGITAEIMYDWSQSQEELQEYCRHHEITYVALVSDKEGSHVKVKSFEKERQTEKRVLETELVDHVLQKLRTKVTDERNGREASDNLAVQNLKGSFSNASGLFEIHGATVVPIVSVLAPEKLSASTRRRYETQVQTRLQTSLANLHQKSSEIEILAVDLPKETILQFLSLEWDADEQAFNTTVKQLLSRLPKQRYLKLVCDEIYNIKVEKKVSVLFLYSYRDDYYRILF

**Q.** Which IC50 does the source give for `Cc1cc(Nc2ncc(Cl)c(-c3c[nH]c4c(NC(=O)CN5CC[C@H](Oc6ccnc(NC7CC7)n6)C5)cccc34)n2)nn1C` [US20240025884, Example 10] here?
**A.** The IC50 was < 10 nM.

**Q.** `Cc1cnc(Nc2cc(C)n(C)n2)nc1-c1c[nH]c2c(N3Cc4c(/C=C/C(=O)NC(C)C)cccc4C3=O)cccc12` [US20240025884, Example 370] was tested. Which IC50 did it give?
**A.** The IC50 was < 10 nM.
